Reference: PubChem BioAssay (NCI)
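Grown in 96-well plates, cells were treated for 48 hours with each compound at five concentrations. Insufficient inhibition: endpoint recorded as highest concentration tested. The concentration for 50% growth inhibition is given as GI50. The concentration for full growth arrest is given as TGI.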

Key:
Assay in all cases: growth of human tumour cells (NCI), 48 h
[1] = tested on: LOX IMVI melanoma
[2] = tested on: OVCAR-5 ovarian
[3] = tested on: SF-268 CNS
[4] = tested on: HOP-92 NSCLC
[5] = tested on: IGROV1 ovarian
[6] = tested on: SW-620 colon
[7] = tested on: UO-31 renal
[8] = tested on: SK-OV-3 ovarian
[9] = tested on: HL-60(TB) leukemia
[10] = tested on: A498 renal
[11] = tested on: SK-MEL-2 melanoma
[12] = tested on: MDA-MB-435
[13] = tested on: MALME-3M melanoma
[14] = tested on: PC-3 prostate
[15] = tested on: NCI-H460 lung
[16] = tested on: TK-10 renal
[17] = tested on: EKVX NSCLC
[18] = tested on: HCT-116 colon
[19] = tested on: UACC-62 melanoma
[20] = tested on: SK-MEL-28 melanoma
[21] = tested on: OVCAR-3 ovarian
[22] = tested on: RPMI-8226 leukemia
[23] = tested on: MCF7 breast
[24] = tested on: NCI-H23 lung
[25] = tested on: ACHN renal
[26] = tested on: SN12C renal
[27] = tested on: SNB-19 CNS
[28] = tested on: OVCAR-4 ovarian
[29] = tested on: SR leukemia

## CSc1ccc(/C(=N/N=C(N)N)c2ccc(F)cc2)cc1
[1]
  GI50: 324 nM
  TGI: 1550 nM
[2]
  GI50: 651 nM
  TGI: 12700 nM
[3]
  GI50: 787 nM
  TGI: 11600 nM
[4]
  GI50: 797 nM
  TGI: 6110 nM
[5]
  GI50: 421 nM
  TGI: 3470 nM
[6]
  GI50: 457 nM
  TGI: 9760 nM
[7]
  GI50: 856 nM
  TGI: 4450 nM
[8]
  GI50: 780 nM
  TGI: 15500 nM
[9]
  GI50: 273 nM
  TGI: 873 nM
[10]
  GI50: 390 nM
  TGI: 2960 nM
[11]
  GI50: 2670 nM
  TGI: 17500 nM
[12]
  GI50: 230 nM
  TGI: 551 nM
[13]
  GI50: 1010 nM
  TGI: 3250 nM
[14]
  GI50: 466 nM
  TGI: 11400 nM
[15]
  GI50: 367 nM
  TGI: 3400 nM
[16]
  GI50: 2920 nM
  TGI: 17200 nM
[17]
  GI50: 600 nM
  TGI: 13300 nM
[18]
  GI50: 346 nM
  TGI: 4580 nM
[19]
  GI50: 417 nM
  TGI: 7300 nM
[20]
  GI50: 1410 nM
  TGI: 11600 nM
[21]
  GI50: 406 nM
  TGI: 9680 nM
[22]
  GI50: 468 nM
  TGI: 3160 nM
[23]
  GI50: 358 nM
  TGI: 3690 nM
[24]
  GI50: 328 nM
  TGI: 3870 nM
[25]
  GI50: 724 nM
  TGI: 10500 nM
[26]
  GI50: 672 nM
  TGI: 10000 nM
[27]
  GI50: 424 nM
  TGI: 12500 nM
[28]
  GI50: 982 nM
  TGI: 15600 nM
[29]
  GI50: 360 nM
  TGI: 1800 nM
